Experimental data as given in patent US5637625A, “Propofol microdroplet formulations” (Research Triangle Pharmaceuticals Ltd., priority 1996, dated 1997).

Tests used:
[1] = system: laboratory rats; test: Efficacy for general anesthesia in rats (i.v. tail vein), with mortality; type: in vivo, female CD laboratory rats; details: 20-21 mg/kg
Description: Diprivan® (Diprivan® 1%, Injection propofol, 10 mg/ml, Emulsion for I.V. Administration, Stuart Pharmaceuticals) was purchased. It is described by the manufacturer as a sterile, nonpyrogenic emulsion containing 10 mg/mL propofol, 100 mg/ml soybean oil, 12 mg/mL lecithin in an aqueous vehicle. It was maintained at room temperature as described by the manufacturer. Samples were taken using aseptic technique.
Lecithin-coated propofol microdroplets containing 6.8% propofol and Diprivan® were injected into the tail veins of 150 gram female CD laboratory rats (Charles River Laboratories, Wilmington, Mass.) restrained in a Decapicone® (Braintree Scientific, Braintree, Mass.). The volumes of 6.8% (w/v) microdroplet propofol injected were 10, 20, 30 or 50 μL. The injections were accomplished in 2-3 seconds. Volumes of 1% Diprivan® injections were 100, 200, 300 or 500 μL. The injections were accomplished in 5-15 seconds. The animals were observed during the injections, and the time required for loss of consciousness ("time to unconsciousness") was recorded. Then the animals were removed from the Decapicone® and placed on their sides and were tested for startle response to a loud clap. […] The time to regain startle response ("time to startle response") was recorded. The time to recover the righting response, indicated by spontaneous attempt to stand, was also measured. […]

[2] = cited from earlier work
[3] = pure oily state; cited from earlier work

Structure (SMILES): CC(C)c1cccc(C(C)C)c1O [Propofol, 2,6-diisopropylphenol]
- Mortality (in words) [1]: significant mortality
- Water solubility [2]: water-insoluble
- Irritancy [3]: irritant
